Data published in ChEMBL document CHEMBL2440076, “New triarylpyrazoles as broad-spectrum anticancer agents: design, synthesis, and biological evaluation” (Eur J Med Chem, 2013).

Columns and labels:
Format in all cases: functional
[1] = system: DU-145; test: Growth inhibition of human DU145 cells assessed as cell growth at 10^-8 M after 48 hrs by sulforhodamine B assay; details: DU-145, 48 h, read-out: Activity
[2] = Growth inhibition of human Hs 578T cells assessed as cell growth at 10^-8 M after 48 hrs by sulforhodamine B assay; details: read-out: Activity
[3] = system: T47D; test: Growth inhibition of human T47D cells assessed as cell growth at 10^-4 M after 48 hrs by sulforhodamine B assay; details: read-out: Activity
[4] = system: CAKI-1; test: Growth inhibition of human CAKI-1 cells assessed as cell growth at 10^-4 M after 48 hrs by sulforhodamine B assay; details: CAKI-1, 48 h, read-out: Activity
[5] = system: HCT-116; test: Growth inhibition of human HCT116 cells assessed as cell growth at 10^-7 M after 48 hrs by sulforhodamine B assay; details: HCT-116, 48 h, read-out: Activity
[6] = system: HOP-92; test: Growth inhibition of human HOP92 cells assessed as cell growth at 10^-5 M after 48 hrs by sulforhodamine B assay; details: HOP-92, 48 h, read-out: Activity
[7] = system: OVCAR-4; test: Growth inhibition of human OVCAR4 cells assessed as cell growth […] after 48 hrs by sulforhodamine B assay; details: OVCAR-4, 48 h, read-out: Activity
[8] = system: A549; test: Growth inhibition of human A549/ATCC cells assessed as cell growth at 10^-8 M after 48 hrs by sulforhodamine B assay; details: A549, 48 h, read-out: Activity
[9] = system: UACC-257; test: Growth inhibition of human UACC257 cells assessed as cell growth at 10^-6 M after 48 hrs by sulforhodamine B assay; details: UACC-257, 48 h, read-out: Activity
[10] = system: MDA-MB-231; test: Growth inhibition of human MDA-MB-231 cells assessed as cell growth at 10^-8 M after 48 hrs by sulforhodamine B assay; details: MDA-MB-231, 48 h, read-out: Activity
[11] = system: SF-295; test: Growth inhibition of human SF295 cells assessed as cell growth at 10^-7 M after 48 hrs by sulforhodamine B assay; details: SF-295, 48 h, read-out: Activity
[12] = system: HOP-62; test: Growth inhibition of human HOP62 cells assessed as cell growth at 10^-8 M after 48 hrs by sulforhodamine B assay; details: HOP-62, 48 h, read-out: Activity
[13] = system: MDA-MB-468; test: Growth inhibition of human MDA-MB-468 cells assessed as cell growth at 10^-7 M after 48 hrs by sulforhodamine B assay; details: MDA-MB-468, 48 h, read-out: Activity
[14] = system: SNB-19; test: Growth inhibition of human SNB19 cells assessed as cell growth at 10^-4 M after 48 hrs by sulforhodamine B assay; details: SNB-19, 48 h, read-out: Activity
[15] = system: A549; test: Growth inhibition of human A549/ATCC cells assessed as cell growth at 10^-4 M after 48 hrs by sulforhodamine B assay; details: A549, 48 h, read-out: Activity
[16] = system: A498; test: Growth inhibition of human A498 cells assessed as cell growth at 10^-7 M after 48 hrs by sulforhodamine B assay; details: A498, 48 h, read-out: Activity
[17] = system: NCI-H322M; test: Growth inhibition of human NCI-H322M cells assessed as cell growth at 10^-6 M after 48 hrs by sulforhodamine B assay; details: read-out: Activity
[18] = system: RPMI-8226; test: Growth inhibition of human RPMI8226 cells assessed as cell growth at 10^-5 M after 48 hrs by sulforhodamine B assay; details: RPMI-8226, 48 h, read-out: Activity
[19] = system: SK-OV-3; test: Growth inhibition of human SKOV3 cells assessed as cell growth at 10^-6 M after 48 hrs by sulforhodamine B assay; details: SK-OV-3, 48 h, read-out: Activity
[20] = system: MDA-MB-435; test: Growth inhibition of human MDA-MB-435 cells assessed as cell growth at 10^-8 M after 48 hrs by sulforhodamine B assay; details: MDA-MB-435, 48 h, read-out: Activity
[21] = system: TK-10; test: Growth inhibition of human TK10 cells assessed as cell growth at 10^-8 M after 48 hrs by sulforhodamine B assay; details: TK-10, 48 h, read-out: Activity
[22] = system: OVCAR-4; test: Growth inhibition of human OVCAR4 cells assessed as cell growth at 10^-8 M after 48 hrs by sulforhodamine B assay; details: OVCAR-4, 48 h, read-out: Activity
[23] = system: NCI-H226; test: Growth inhibition of human NCI-H226 cells assessed as cell growth at 10^-4 M after 48 hrs by sulforhodamine B assay; details: NCI-H226, 48 h, read-out: Activity
[24] = system: RXF 393; test: Growth inhibition of human RXF393 cells assessed as cell growth at 10^-4 M after 48 hrs by sulforhodamine B assay; details: RXF 393, 48 h, read-out: Activity
[25] = Growth inhibition of human HCC2998 cells assessed as cell growth at 10^-6 M after 48 hrs by sulforhodamine B assay; details: HCC 2998, 48 h, read-out: Activity
[26] = system: A549; test: Growth inhibition of human A549/ATCC cells assessed as cell growth at 10^-6 M after 48 hrs by sulforhodamine B assay; details: A549, 48 h, read-out: Activity
[27] = system: OVCAR-5; test: Growth inhibition of human OVCAR5 cells assessed as cell growth at 10^-8 M after 48 hrs by sulforhodamine B assay; details: OVCAR-5, 48 h, read-out: Activity
[28] = system: CCRF-CEM; test: Growth inhibition of human CCRF-CEM cells assessed as cell growth at 10^-7 M after 48 hrs by sulforhodamine B assay; details: read-out: Activity
[29] = system: RXF 393; test: Growth inhibition of human RXF393 cells assessed as cell growth at 10^-6 M after 48 hrs by sulforhodamine B assay; details: RXF 393, 48 h, read-out: Activity
[30] = system: SN12C; test: Growth inhibition of human SN12C cells assessed as cell growth at 10^-8 M after 48 hrs by sulforhodamine B assay; details: read-out: Activity
[31] = Growth inhibition of human Hs 578T cells assessed as cell growth at 10^-7 M after 48 hrs by sulforhodamine B assay; details: read-out: Activity
[32] = system: HT-29; test: Growth inhibition of human HT-29 cells assessed as cell growth at 10^-7 M after 48 hrs by sulforhodamine B assay; details: HT-29, 48 h, read-out: Activity
[33] = Growth inhibition of human HCC2998 cells assessed as cell growth at 10^-8 M after 48 hrs by sulforhodamine B assay; details: HCC 2998, 48 h, read-out: Activity
[34] = system: NCI-H23; test: Growth inhibition of human NCI-H23 cells assessed as cell growth at 10^-5 M after 48 hrs by sulforhodamine B assay; details: NCI-H23, 48 h, read-out: Activity
[35] = system: 786-0; test: Growth inhibition of human 786-0 cells assessed as cell growth at 10^-8 M after 48 hrs by sulforhodamine B assay; details: 786-0, 48 h, read-out: Activity
[36] = system: KM12; test: Growth inhibition of human KM12 cells assessed as cell growth at 10^-6 M after 48 hrs by sulforhodamine B assay; details: KM12, 48 h, read-out: Activity
[37] = system: UO-31; test: Growth inhibition of human UO31 cells assessed as cell growth at 10^-6 M after 48 hrs by sulforhodamine B assay; details: UO-31, 48 h, read-out: Activity

COc1cc(-c2nn(-c3cccc(NC(=O)c4ccc(N5CCOCC5)c(C(F)(F)F)c4)c3)cc2-c2ccncc2)ccc1Cl
growth at 0.01 µM [1]: 108% | growth at 0.01 µM [2]: 96% | growth at 100 µM [3]: 13% | growth at 100 µM [4]: -4% | growth at 0.1 µM [5]: 75% | growth at 10 µM [6]: -26% | growth at 100 µM [7]: 18% | growth at 0.01 µM [8]: 94% | growth at 1 µM [9]: 49% | growth at 0.01 µM [10]: 95% | growth at 0.1 µM [11]: 60% | growth at 0.01 µM [12]: 96% | growth at 0.1 µM [13]: 71% | growth at 100 µM [14]: 15% | growth at 100 µM [15]: 4% | growth at 0.1 µM [16]: 77% | growth at 1 µM [17]: 36% | growth at 10 µM [18]: 6% | growth at 1 µM [19]: 24% | growth at 0.01 µM [20]: 90% | growth at 0.01 µM [21]: 99% | growth at 0.01 µM [22]: 97% | growth at 100 µM [23]: 16% | growth at 100 µM [24]: -27% | growth at 1 µM [25]: 52% | growth at 1 µM [26]: 31% | growth at 0.01 µM [27]: 95% | growth at 0.1 µM [28]: 73% | growth at 1 µM [29]: -16% | growth at 0.01 µM [30]: 95% | growth at 0.1 µM [31]: 81% | growth at 0.1 µM [32]: 106% | growth at 0.01 µM [33]: 101% | growth at 10 µM [34]: 4% | growth at 0.01 µM [35]: 98% | growth at 1 µM [36]: 28% | growth at 1 µM [37]: 33%

COc1cc(-c2nn(-c3cccc(NC(=O)c4ccccc4)c3)cc2-c2ccncc2)ccc1Cl
growth at 0.01 µM [1]: 104% | growth at 0.01 µM [2]: 103% | growth at 100 µM [3]: 30% | growth at 100 µM [4]: 7% | growth at 0.1 µM [5]: 95% | growth at 10 µM [6]: -8% | growth at 100 µM [7]: 30% | growth at 0.01 µM [8]: 96% | growth at 1 µM [9]: 47% | growth at 0.01 µM [10]: 103% | growth at 0.1 µM [11]: 90% | growth at 0.01 µM [12]: 94% | growth at 0.1 µM [13]: 89% | growth at 100 µM [14]: 13% | growth at 100 µM [15]: 6% | growth at 0.1 µM [16]: 89% | growth at 1 µM [17]: 78% | growth at 10 µM [18]: 10% | growth at 1 µM [19]: 51% | growth at 0.01 µM [20]: 96% | growth at 0.01 µM [21]: 93% | growth at 0.01 µM [22]: 93% | growth at 100 µM [23]: 24% | growth at 100 µM [24]: -8% | growth at 1 µM [25]: 75% | growth at 1 µM [26]: 37% | growth at 0.01 µM [27]: 95% | growth at 0.1 µM [28]: 101% | growth at 1 µM [29]: 35% | growth at 0.01 µM [30]: 96% | growth at 0.1 µM [31]: 97% | growth at 0.1 µM [32]: 98% | growth at 0.01 µM [33]: 97% | growth at 10 µM [34]: 21% | growth at 0.01 µM [35]: 93% | growth at 1 µM [36]: 36% | growth at 1 µM [37]: 42%
